Experiments:
[1] = tested on: JAK-STAT signalling in HeLa cells; assay: JAK-STAT signalling assay (pSTAT1(2)-luciferase reporter, OSM-triggered HeLa cells); type: cell-based; conditions: human OSM 33 ng/mL
Protocol: HeLa cells were maintained in Dulbecco's Modified Eagle's Medium (DMEM) containing 10% heat inactivated fetal calf serum, 100 U/mL penicillin and 100 μg/mL streptomycin. HeLa cells were used at 70% confluence for transfection. 20,000 cells in 87 μL cell culture medium were transiently transfected with 40 ng pSTAT1(2)-luciferase reporter (Panomics), 8 ng of LacZ reporter as internal control reporter and 52 ng of pBSK using 0.32 μL Jet-PEI (Polyplus) as transfection reagent per well in 96-well plate format. After overnight incubation at 37° C., 5% CO2, transfection medium was removed. 81 μL of DMEM+1.5% heat inactivated fetal calf serum was added. 9 μL compound at 10× concentration was added for 60 min and then 10 μL of human OSM (Peprotech) at 33 ng/mL final concentration.
All compounds were tested in duplicate starting from 20 μM followed by a ⅓ serial dilution, 8 doses in total (20 μM-6.6 μM-2.2 μM-740 nM-250 nM-82 nM-27 nM-9 nM) in a final concentration of 0.2% DMSO.
After overnight incubation at 37° C., 5% CO2 cells were lysed by adding 100 μL lysis buffer/well (PBS, 0.9 mM CaCl2, 0.5 mM MgCl2, 10% Trehalose, 0.05% Tergitol NP9, 0.3% BSA).
40 μL of cell lysate was used to read β-galactosidase activity by adding 180 μL β-Gal solution (30 μl ONPG 4 mg/mL+150 μL β-Galactosidase buffer (0.06 M Na2HPO4, 0.04 M NaH2PO4, 1 mM MgCl2)) for 20 min. The reaction was stopped by addition of 50 μL Na2CO3 1 M. Absorbance was read at 405 nm.
Luciferase activity was measured using 40 μL cell lysate plus 40 μL of Steadylite® as described by the manufacturer (Perkin Elmer), on the Envision (Perkin Elmer).
Omitting OSM was used as a positive control (100% inhibition). As negative control 0.5% DMSO (0% inhibition) was used. The positive and negative controls were used to calculate z′ and ‘percent inhibition’ (PIN) values. Percentage inhibition=((fluorescence determined in the presence of vehicle−fluorescence determined for sample with test compound present)divided by(fluorescence determined in the presence of vehicle−fluorescence determined for sample without trigger))*100.
PIN values were plotted for compounds tested in dose-response and EC50 values were derived.

[2] = target: T1, Recombinant human TYK2 catalytic domain (Homo sapiens, UniProt P29597); assay: TYK2 inhibition assay; type: biochemical; conditions: polyGT substrate, 33P-gamma-ATP filter assay, 0.1 μM ATP
T1 construct: catalytic domain (amino acids 871-1187; catalog number 08-147); GST; purchased Carna Biosciences 08-147
T1 sequence (P29597 871-1187): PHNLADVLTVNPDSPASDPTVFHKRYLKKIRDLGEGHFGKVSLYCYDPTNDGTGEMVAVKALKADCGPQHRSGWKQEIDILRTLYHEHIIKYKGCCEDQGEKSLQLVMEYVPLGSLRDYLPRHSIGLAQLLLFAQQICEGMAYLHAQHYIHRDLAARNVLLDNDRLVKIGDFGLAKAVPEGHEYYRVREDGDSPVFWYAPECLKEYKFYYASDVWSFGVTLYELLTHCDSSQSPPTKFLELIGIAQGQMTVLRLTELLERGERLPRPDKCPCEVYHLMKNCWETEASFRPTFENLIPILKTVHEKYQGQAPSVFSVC
Protocol: Recombinant human TYK2 catalytic domain (amino acids 871-1187; catalog number 08-147) was purchased from Carna biosciences. 4 ng of TYK2 was incubated with 12.5 μg polyGT substrate (Sigma catalog number P0275) in kinase reaction buffer (25 mM Hepes pH 7.2, 50 mM NaCl, 0.5 mM EDTA, 1 mM DTT, 5 mM MnCl2, 10 mM MgCl2, 0.1% Brij-35, 0.1 μM non-radioactive ATP, 0.125 μCi ^33P-gamma-ATP (Perkin Elmer, catalog number NEG602K001MC) final concentrations) with or without 5 μL containing test compound or vehicle (DMSO, 1% final concentration), in a total volume of 25 μL, in a polypropylene 96-well plate (Greiner, V-bottom). After 90 min at 30° C., reactions were stopped by adding 25 μL/well of 150 mM phosphoric acid. All of the terminated kinase reaction was transferred to prewashed (75 mM phosphoric acid) 96 well filter plates (Perkin Elmer catalog number 6005177) using a cell harvester (Perkin Elmer). Plates were washed 6 times with 300 μL per well of a 75 mM phosphoric acid solution and the bottom of the plates was sealed. 40 μL/well of Microscint-20 was added, the top of the plates was sealed and readout was performed using the Topcount (Perkin Elmer). Kinase activity was calculated by subtracting counts per min (cpm) obtained in the presence of a positive control inhibitor (10 μM staurosporine) from cpm obtained in the presence of vehicle. The ability of a test compound to inhibit this activity was determined as: Percentage inhibition=((cpm determined for sample with test compound present−cpm determined for sample with positive control inhibitor)divided by(cpm determined in the presence of vehicle−cpm determined for sample with positive control inhibitor))*100.
Dose dilution series were prepared for the compounds enabling the testing of dose-response effects in the TYK2 assay and the calculation of the IC50 for each compound. Each compound was routinely tested at concentration of 20 μM followed by a ⅓ serial dilution, 8 points (20 μM-6.67 μM-2.22 μM-740 nM-247 nM-82 nM-27 nM-9 nM) in a final concentration of 1% DMSO. When potency of compound series increased, more dilutions were prepared and/or the top concentration was lowered (e.g. 5 μM, 1 μM).

IC50 [1] | IC50 [2] | SMILES
> 1000 nM | 101 to 500 nM | CS(=O)(=O)C1CCN(Cc2ccc(-c3cccn4nc(NC(=O)C5CC5)c(Cl)c34)cc2)CC1 [Compound 19, N-(3-chloro-4-(4-((4-(methylsulfonyl)piperidin-1-yl)methyl)phenyl)pyrazolo[1,5-a]pyridin-2-yl)cyclopropanecarboxamide]
> 1000 nM | 0.01 to 100 nM | CS(=O)(=O)C1CCN(Cc2ccc(-c3cccn4nc(NC(=O)C5CC5)c(Cl)c34)cc2F)CC1 [Compound 20, N-(3-chloro-4-(3-fluoro-4-((4-(methylsulfonyl)piperidin-1-yl)methyl)phenyl)pyrazolo[1,5-a]pyridin-2-yl)cyclopropanecarboxamide]
501 to 1000 nM | 101 to 500 nM | CC(=O)Nc1cc2c(-c3ccc(CN4CCN(S(C)(=O)=O)CC4)c(F)c3)cccn2n1 [Compound 21]
> 1000 nM | 101 to 500 nM | CS(=O)(=O)N1CCN(Cc2ccc(-c3cccn4nc(NC(=O)C5CC5)cc34)cn2)CC1 [Compound 23, N-(4-(6-((4-(methylsulfonyl)piperazin-1-yl)methyl)pyridin-3-yl)pyrazolo[1,5-a]pyridin-2-yl)cyclopropanecarboxamide]
> 1000 nM | 501 to 1000 nM | CC(=O)Nc1cc2c(-c3ccc(CN4CCN(S(C)(=O)=O)C[C@H]4C)cc3)cccn2n1 [Compound 24, (R)-N-(4-(4-((2-methyl-4-(methylsulfonyl)piperazin-1-yl)methyl)phenyl)pyrazolo[1,5-a]pyridin-2-yl)acetamide]
501 to 1000 nM | 101 to 500 nM | CC(=O)Nc1cc2c(-c3ccc(CN4CCN(S(C)(=O)=O)CC4)cc3)cccn2n1 [Compound 25, N-(4-(4-((4-(methylsulfonyl)piperazin-1-yl)methyl)phenyl)pyrazolo[1,5-a]pyridin-2-yl)acetamide]
> 1000 nM | > 1000 nM | CC(=O)Nc1cc2c(-c3cnc(CN4CCN(S(C)(=O)=O)CC4)c(F)c3)cccn2n1 [Compound 26, N-(4-(5-fluoro-6-((4-(methylsulfonyl)piperazin-1-yl)methyl)pyridin-3-yl)pyrazolo[1,5-a]pyridin-2-yl)acetamide]
101 to 500 nM | 0.01 to 100 nM | CC(=O)Nc1cc2c(-c3ccc(CN4CCS(=O)(=O)CC4)c(F)c3)cccn2n1 [Compound 27, N-{4-[4-(1,1-Dioxo-thiomorpholin-4-ylmethyl)-3-fluoro-phenyl]-pyrazolo[1,5-a]pyridin-2-yl}-acetamide]
> 1000 nM | 0.01 to 100 nM | CC(=O)Nc1cc2c(-c3ccc(CN4CCC(S(C)(=O)=O)CC4)c(F)c3)cccn2n1 [Compound 29, N-(4-(3-fluoro-4((4-(methylsulfonyl)piperidin-1-yl)methyl)phenyl)pyrazolo[1,5-a]pyridin-2-yl)acetamide]
501 to 1000 nM | 0.01 to 100 nM | CC(=O)Nc1cc2c(-c3ccc(CC(=O)N4CC(F)(F)C4)cc3)cccn2n1 [Compound 34, N-(4-(4-(2-(3,3-difluoroazetidin-1-yl)-2-oxoethyl)phenyl)pyrazolo[1,5-a]pyridin-2-yl)acetamide]
101 to 500 nM | 0.01 to 100 nM | C[C@@H]1CN(S(C)(=O)=O)CCN1Cc1ccc(-c2cccn3nc(NC(=O)C4CC4)cc23)cc1 [Compound 44, (R)-N-(4-(4-((2-methyl-4-(methylsulfonyl)piperazin-1-yl)methyl)phenyl)pyrazolo[1,5-a]pyridin-2-yl)cyclopropanecarboxamide]
501 to 1000 nM | 0.01 to 100 nM | CC(=O)Nc1cc2c(-c3ccc(C(C)N4CCN(S(C)(=O)=O)CC4)cc3)cccn2n1 (centres unmarked) [Compound 45, N-(4-(4-(1-(4-(methylsulfonyl)piperazin-1-yl)ethyl)phenyl)pyrazolo[1,5-a]pyridin-2-yl)acetamide]
101 to 500 nM | 0.01 to 100 nM | C[C@H](c1ccc(-c2cccn3nc(NC(=O)C4CC4)cc23)cc1)N1CCN(S(C)(=O)=O)CC1 [Compound 46, (R)-N-(4-(4-(1-(4-(methylsulfonyl)piperazin-1-yl)ethyl)phenyl)pyrazolo[1,5-a]pyridin-2-yl)cyclopropanecarboxamide]
101 to 500 nM | 0.01 to 100 nM | C[C@@H](c1ccc(-c2cccn3nc(NC(=O)C4CC4)cc23)cc1)N1CCN(S(C)(=O)=O)CC1 [Compound 47, (S)-N-(4-(4-(1-(4-(methylsulfonyl)piperazin-1-yl)ethyl)phenyl)pyrazolo[1,5-a]pyridin-2-yl)cyclopropanecarboxamide]
501 to 1000 nM | 101 to 500 nM | O=C(Nc1cc2c(-c3ccc(CN4CCCCC45COC5)cc3)cccn2n1)C1CC1 [Compound 48, N-(4-(4-(2-oxa-5-azaspiro[3.5]nonan-5-ylmethyl)phenyl)pyrazolo[1,5-a]pyridin-2-yl)cyclopropanecarboxamide]
101 to 500 nM | 0.01 to 100 nM | CS(=O)(=O)N1CC[C@@H](Oc2ccc(-c3cccn4nc(NC(=O)C5CC5)cc34)cc2)C1 [Compound 49, (R)-N-(4-(4-(1-(methylsulfonyl)pyrrolidin-3-yloxy)phenyl)pyrazolo[1,5-a]pyridin-2-yl)cyclopropanecarboxamide]

Source: patent US8975406B2, “Compound useful for the treatment of degenerative and inflammatory diseases” (Galapagos N.V., priority 2011, dated 2015)
